Results published in patent publication US20080292561A1, “Pyrazolo-Pyrimidine Derivatives as Anti-Inflammatory Agents” (Glaxo Group Limited, priority 2005, published 2008).

Tested on: NFkB activity
Experiment: Glucocorticoid mediated transrepression of NFkB activity (A549 cells, ELAM promoter alkaline phosphatase reporter, TNFα)
Assay type: cell-based
Settings: Homo sapiens, A549, 16 h, Human A549 lung epithelial cells, 3 ng/ml human recombinant TNFα, read-out: pIC50, transrepression of NFkB activity (converted)
Description: Human A549 lung epithelial cells were engineered to contain a secreted placental alkaline phosphatase gene under the control of the distal region of the NFkB dependent ELAM promoter as previously described in Ray, K. P., Farrow, S., Daly, M., Talabot, F. and Searle, N. “Induction of the E-selectin promoter by interleukin 1 and tumour necrosis factor alpha, and inhibition by glucocorticoids” Biochemical Journal (1997) 328: 707-15.
Compounds were solvated and diluted in DMSO, and transferred directly into assay plates such that the final concentration of DMSO was 0.7%. Following the addition of cells (40K per well), plates were incubated for 1 hr prior to the addition of 3 ng/ml human recombinant TNFα. Following continued incubation for 16 hr, alkaline phosphatase activity was determined by measuring the change in optical density at 405 nm with time following the addition of 0.7 volumes of assay buffer (1 mg/ml p-nitrophenylphosphate dissolved in 1M diethanolamine, 0.28M NaCl, 0.5 mM MgCl2). Dose response curves were constructed from which EC50 values were estimated.

Compound: COc1ccc(F)cc1C(C)(C)CC(O)(CNc1nc(C)nc2c1cnn2-c1ccncc1)C(F)(F)F (stereo not shown) [Example 18, 1,1,1-Trifluoro-4-[5-fluoro-2-(methyloxy)phenyl]-4-methyl-2-({[6-methyl-1-(4-pyridinyl)-1H-pyrazolo[3,4-d]pyrimidin-4-yl]amino}methyl)-2-pentanol]
- IC50: < 100 nM

Compound: CCc1nc(NCC(O)(CC(C)(C)c2cccc3c2OCC3)C(F)(F)F)c2cnn(-c3ccc(F)cc3)c2n1 (stereo not shown) [Example 7, 4-(2,3-Dihydro-1-benzofuran-7-yl)-2-({[6-ethyl-1-(4-fluorophenyl)-1H-pyrazolo[3,4-d]pyrimidin-4-yl]amino}methyl)-1,1-trifluoro-4-methyl-2-pentanol]
- IC50: < 100 nM

Compound: COc1ccc(F)cc1C(C)(C)CC(O)(CNc1nc(C)nc2c1cnn2-c1ccc(F)cc1)C(F)(F)F (stereo not shown) [Example 15, 1,1,1-Trifluoro-4-[5-fluoro-2-(methyloxy)phenyl]-2-({[1-(4-fluorophenyl)-6-methyl-1H-pyrazolo[3,4-d]pyrimidin-4-yl]amino}methyl)-4-methyl-2-pentanol]
- IC50: < 100 nM

Compound: COc1ccc(F)cc1C(C)(C)CC(O)(CNc1nc(C)nc2c1cnn2-c1ccccc1F)C(F)(F)F (stereo not shown) [Example 14, 1,1,1-Trifluoro-4-[5-fluoro-2-(methyloxy)phenyl]-2-({[1-(2-fluorophenyl)-6-methyl-1H-pyrazolo[3,4-d]pyrimidin-4-yl]amino}methyl)-4-methyl-2-pentanol]
- IC50: < 100 nM
